Laboratory results taken from patent US20190297887A1, “BICYCLIC COMPOUNDS AS PESTICIDES” (Bayer CropScience Aktiengesellschaft, priority 2016, published 2019).
Like-named read-outs stand apart in the source and are kept apart here.

What was measured:
[1] = system: green peach aphids (Myzus persicae); assay: Myzus persicae - oral test; type: in vivo; settings: 120 h, application rate 4 ppm, after 5 days, oral uptake from microtitre plate, read-out: efficacy in % (aphids killed)
Method: Myzus persicae—Oral Test Solvent: 100 parts by weight of acetone To produce a suitable active ingredient formulation, 1 part by weight of active ingredient is dissolved with the stated parts by weight of solvent and made up to the desired concentration with water. 50 μl of the active ingredient formulation are transferred into microtitre plates and made up to a final volume of 200 μl with 150 μl of IPL41 insect medium (33%+15% sugar). Subsequently, the plates are sealed with parafilm, which a mixed population of green peach aphids (Myzus persicae) within a second microtitre plate is able to puncture and imbibe the solution. After 5 days, the efficacy in % is determined. 100% means that all the aphids have been killed; 0% means that no aphids have been killed.

[2] = system: green peach aphid (Myzus persicae); assay: Myzus persicae - spray test; type: in vivo; settings: foliar, application rate 500 g/ha, after 5-6 days, sprayed Chinese cabbage leaf discs, read-out: efficacy in % (aphids killed)
Method: Myzus persicae—Spray Test Solvent: 78 parts by weight of acetone • • 1.5 parts by weight of dimethylformamide Emulsifier: alkylaryl polyglycol ether To produce a suitable active ingredient formulation, 1 part by weight of active ingredient is dissolved with the specified parts by weight of solvent and made up to the desired concentration with water containing an emulsifier concentration of 1000 ppm. To produce further test concentrations, the formulation is diluted with emulsifier-containing water. Discs of Chinese cabbage leaves (Brassica pekinensis) infested by all stages of the green peach aphid (Myzus persicae) are sprayed with an active ingredient formulation of the desired concentration. After 5-6 days, the efficacy in % is determined. 100% means that all the aphids have been killed; 0% means that no aphids have been killed.

[3] = system: larvae of the mustard beetle (Phaedon cochleariae); assay: Phaedon cochleariae - spray test; type: in vivo; settings: application rate 500 g/ha; after 7 days; sprayed Chinese cabbage leaf discs
Method: Phaedon cochleariae—Spray Test
Solvent: 78.0 parts by weight of acetone • • 1.5 parts by weight of dimethylformamide
Emulsifier: alkylaryl polyglycol ether
To produce a suitable active ingredient formulation, 1 part by weight of active ingredient is dissolved with the specified parts by weight of solvent and made up to the desired concentration with water containing an emulsifier concentration of 1000 ppm. To produce further test concentrations, the formulation is diluted with emulsifier-containing water.
Discs of Chinese cabbage leaves (Brassica pekinensis) are sprayed with an active compound formulation of the desired concentration and, after drying, populated with larvae of the mustard beetle (Phaedon cochleariae).
After 7 days, the efficacy in % is determined. 100% means that all the beetle larvae have been killed; 0% means that no beetle larvae have been killed.

[4] = system: southern root-knot nematode (Meloidogyne incognita); assay: Meloidogyne incognita test; type: in vivo; settings: application rate 20 ppm; after 14 days; lettuce in sand; 100% = no galls
Method: Meloidogyne incognita Test Solvent: 125.0 parts by weight of acetone To produce a suitable active ingredient formulation, 1 part by weight of active ingredient is mixed with the stated amount of solvent and the concentrate is diluted to the desired concentration with water. Vessels are filled with sand, active ingredient solution, an egg/larvae suspension of the southern root-knot nematode (Meloidogyne incognita) and lettuce seeds. The lettuce seeds germinate and the plants develop. The galls develop on the roots. After 14 days, the nematicidal efficacy in % is determined by the formation of galls. 100% means that no galls were found; 0% means that the number of galls on the treated plants corresponds to the untreated control.

[5] = log P determination by HPLC on reversed-phase columns (OECD Guideline 117); type: physicochemical; settings: reversed-phase (C18) HPLC column
Method: The log P values were determined in accordance with OECD Guideline 117 (EC Directive 92/69/EEC) by HPLC (high-performance liquid chromatography) using reversed-phase (RP) columns (C18), by the following methods: [a] The LC-MS determination in the acidic range is carried out at pH 2.7 with 0.1% aqueous formic acid and acetonitrile (contains 0.1% formic acid) as eluents; linear gradient from 10% acetonitrile to 95% acetonitrile. [b] LC-MS determination in the neutral range is carried out at pH 7.8 with 0.001 molar aqueous ammonium hydrogencarbonate solution and acetonitrile as eluents; linear gradient from 10% acetonitrile to 95% acetonitrile. Calibration is effected using unbranched alkan-2-ones (having 3 to 16 carbon atoms) with known log P values (log P values determined on the basis of the retention times by linear interpolation between two successive alkanones).

[6] = acidic range, pH 2.7, 0.1% aqueous formic acid/acetonitrile, read-out: log P(HCOOH)
[7] = neutral range, pH 7.8, 0.001 molar aqueous ammonium hydrogencarbonate/acetonitrile, read-out: log P(neutral)

Row | SMILES | pest or weed control at 4 ppm [1] [%] | pest or weed control at 500 g/ha [2] [%] | also measured
1 | Cn1c(=O)n(Cc2ccccc2Cl)c(=O)n1-c1ccc2nn(-c3cccnc3)cc2c1 [Example 16] | 90 | – | –
2 | CSCCn1c(=O)n(C)n(-c2ccc3nn(-c4cccnc4)cc3c2)c1=O [Example 6] | 90 | 100 | –
3 | O=c1cnn(-c2ccc3nn(-c4cccnc4)cc3c2)c(=O)n1-c1ccccc1 [Example 28] | 90 | – | –
4 | COCCn1c(=O)n(C)n(-c2ccc3nn(-c4cccnc4)cc3c2)c1=O [Example 12] | 100 | 90 | –
5 | Cn1c(=O)n(Cc2cccc(Cl)c2)c(=O)n1-c1ccc2nn(-c3cccnc3)cc2c1 [Example 17] | 100 | – | –
6 | Cn1c(=O)n(Cc2ccccc2)c(=O)n1-c1ccc2nn(-c3cccnc3)cc2c1 [Example 8] | 100 | 100 | –
7 | Cn1c(=O)n(-c2ccccc2)c(=O)n1-c1ccc2nn(-c3cccnc3)cc2c1 [Example 4] | 100 | 90 | efficacy in % (beetle larvae killed) [3]: 83%
8 | Cn1c(=O)n(CC(F)(F)F)c(=O)n1-c1ccc2nn(-c3cccnc3)cc2c1 [Example 9] | 100 | 90 | –
9 | CCn1c(=O)cnn(-c2ccc3nn(-c4cccnc4)cc3c2)c1=O [Example 25] | 100 | 100 | efficacy in % (beetle larvae killed) [3]: 83%
10 | CC(C)n1c(=O)n(C)n(-c2ccc3nn(-c4cccnc4)cc3c2)c1=O [Example 13] | 90 | – | –
11 | CCn1c(=O)n(C)n(-c2ccc3nn(-c4cccnc4)cc3c2)c1=O [Example 5] | 100 | 90 | –
12 | Cn1c(=O)n(CC(F)(F)F)n(-c2ccc3nn(-c4cccnc4)cc3c2)c1=O [Example 10] | 100 | – | –
13 | Cn1c(=O)n(CC(F)F)c(=O)n1-c1ccc2nn(-c3cccnc3)cc2c1 [Example 14] | 100 | 90 | –
14 | O=c1cnn(-c2ccc3nn(-c4cccnc4)cc3c2)c(=O)n1Cc1ccccc1 [Example 27] | 100 | 90 | –
15 | Cn1c(=O)n(Cc2ccc(Cl)nc2)c(=O)n1-c1ccc2nn(-c3cccnc3)cc2c1 [Example 23] | 100 | 100 | –
16 | CC(C)n1c(=O)n(C)n(-c2cnc3nn(-c4cccnc4)cc3c2)c1=O [Example 22] | 100 | – | –
17 | Cn1c(=O)n(C)n(-c2ccc3nn(-c4cccnc4)cc3c2)c1=O [Example 1, 1,4-Dimethyl-2-[2-(pyridin-3-yl)-2H-indazol-5-yl]-1,2,4-triazolidine-3,5-dione] | 100 | 90 | nematicidal efficacy in % (formation of galls) [4]: 90%; chromatographic logP [5, 6]: 1.24; chromatographic logP [5, 7]: 1.31
18 | Cn1c(=O)n(C2CC2)c(=O)n1-c1ccc2nn(-c3cccnc3)cc2c1 [Example 3] | 100 | 100 | –
19 | Cn1c(=O)n(C2CC2)c(=O)n1-c1cnc2nn(-c3cccnc3)cc2c1 [Example 20] | 100 | 90 | –
20 | Cn1c(=O)n(Cc2ccc(Cl)cc2)c(=O)n1-c1ccc2nn(-c3cccnc3)cc2c1 [Example 15] | 100 | – | –
21 | O=c1cnn(-c2ccc3nn(-c4cccnc4)cc3c2)c(=O)n1CC(F)(F)F [Example 24] | 100 | – | –
22 | O=c1cnn(-c2ccc3nn(-c4cccnc4)cc3c2)c(=O)n1CC1CC1 [Example 26] | 100 | 90 | –
23 | Cn1c(=O)n(CC2CC2)c(=O)n1-c1ccc2nn(-c3cccnc3)cc2c1 [Example 7] | 100 | 90 | –
24 | Cn1c(=O)n(C)n(-c2cnc3nn(-c4cccnc4)cc3c2)c1=O [Example 19] | 90 | 100 | –
25 | Cn1c(=O)n(CC2CC2)c(=O)n1-c1cnc2nn(-c3cccnc3)cc2c1 [Example 21] | 100 | 100 | –
26 | Cn1c(=O)n(CC[S+](C)[O-])c(=O)n1-c1ccc2nn(-c3cccnc3)cc2c1 (stereo not shown) [Example 11] | 100 | 90 | –
27 | CCn1c(=O)n(C)n(-c2cnc3nn(-c4cccnc4)cc3c2)c1=O [Example 18] | 100 | 100 | –
28 | Cn1c(=O)cnn(-c2ccc3nn(-c4cccnc4)cc3c2)c1=O [Example 2, 4-Methyl-2-[2-(pyridin-3-yl)-2H-indazol-5-yl]-1,2,4-triazine-3,5(2H,4H)-dione] | 100 | 90 | chromatographic logP [5, 6]: 1.38; chromatographic logP [5, 7]: 1.47
